# Measured values: patent EP1873150A1, “Fluorinated indoleamides useful as ligands of the ORL-1 receptor” (NIKEM RESEARCH S.R.L., priority 2006, dated 2008)
# Read-outs that look alike come from different tables or passages of the source.
# Legend:
# ORL-1 receptor = ORL-1 receptor (Homo sapiens, UniProt P41146); experiment: ORL-1 receptor binding studies, radioligand [3H]-AcRYYRWK-NH2
# Experimental: The receptor binding studies were carried out on 96-well plates; the incubation medium was Tris HCl pH 7.4 (4°C) containing MgCl2 (5 mM), EGTA (0.2 mM), BSA (0.1 %), with a final volume of […], using as radioligand [^3H]-AcRYYRWK-NH2 (Amersham, 103 Ci/mmol). The samples were incubated at 37°C for 120 min. and were then filtered off via Whatman GF/B filters pre-treated with 0.2% polyethylenimine. The filters were washed three times with Tris HCl buffer pH 7.4 (4°C). The radioactivity present on the filters was measured using a Packard Top Count microplate scintillation counter.
# CYP1A2 = target: T1, CYP1A2 (Homo sapiens, UniProt P05177); experiment: Interaction with Cytochrome P450 isoenzymes: CYP1A2; format: in vitro ADME; conditions: Supersomes expressing human CYP1A2, substrate CEC, fluorometric; read-out: CYP450 interaction (IC50, uM) 1A2
# T1 construct: purchased Gentest Corporation, Woburn, MA (Supersomes); host or cells: baculovirus-insect cells
# T1 sequence (P05177 1-516): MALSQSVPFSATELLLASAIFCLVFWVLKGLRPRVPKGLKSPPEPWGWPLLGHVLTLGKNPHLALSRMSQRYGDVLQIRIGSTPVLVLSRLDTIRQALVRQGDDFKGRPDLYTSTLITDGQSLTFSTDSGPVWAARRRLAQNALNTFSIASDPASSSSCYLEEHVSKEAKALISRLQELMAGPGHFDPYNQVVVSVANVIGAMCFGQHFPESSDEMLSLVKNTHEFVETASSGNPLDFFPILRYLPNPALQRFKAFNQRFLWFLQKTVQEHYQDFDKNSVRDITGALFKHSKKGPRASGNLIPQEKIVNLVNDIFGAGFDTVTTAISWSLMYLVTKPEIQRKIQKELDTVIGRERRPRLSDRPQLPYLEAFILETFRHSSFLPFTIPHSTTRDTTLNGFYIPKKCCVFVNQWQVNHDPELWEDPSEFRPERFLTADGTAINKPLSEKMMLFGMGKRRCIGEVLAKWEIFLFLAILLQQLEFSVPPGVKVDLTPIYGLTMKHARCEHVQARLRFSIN
# Experimental: (§1) The assay was performed in a 96-well microtiter plates as described in Stresser et al., Drug Metab. Dispos. 28, 1440 (2000). Microsomes from baculovirus-insect cells (Supersomes, Gentest Corporation, Woburn, MA) expressing human cytochrome P450 isoforms (CYP1A2, CYP2C9, CYP2C19, CYP2D6 and CYP3A4) were utilized. Test compounds or standard inhibitors (dissolved in DMSO or acetonitrile) were serially diluted in a solution containing 16.3 uM NADP^+, 0.83 mM glucose-6-phosphate, 0.83 mM MgCl2, 0.4 U/mL of glucose-6-phosphate dehydrogenase and 0.1 mg/mL microsomal protein prepared from wild-type baculovirus-infected insect cells. Appropriate control wells without inhibitor and without microsomes were also added. The plates were then pre-warmed at 37°C for 10 min, and the reaction was started by adding pre-warmed enzyme/substrate mix (cytochrome P450 isoforms with their specific substrates in a 0.35 M potassium phosphate buffer at pH 7.4). Specific substrates were 3-cyano-7-ethoxycoumarin (CEC) for CYP1A2 and CYP2C19, 7-methoxy-4-trifluoromethylcoumarin (MFC) or dibenzylfluorescein (DBF) for CYP2C9, 3-[2-(N,N-diethyl-N-methylamino)ethyl]-7-methoxy-4-methylcoumarin (AMMC) for CYP2D6 and 7-benzyloxy-4-(trifluoromethyl)-coumarin (BFC) for CYP3A4. Reaction was terminated at various times, depending on the assays, by addition of a 4:1 acetonitrile:0.5 M Tris base solution. Known inhibitors for each isoenzyme (furafylline for CYP1A2, sulfaphenazole for CYP2C9, tranylcypromine for CYP2C19, quinidine for CYP2D6 and ketoconazole for CYP3A4) were tested in all assays as positive controls. Plates were read on a fluorometer (Fluoroskan Ascent, ThermoElectron Corporation, Helsinki, Finland) at the appropriate emission/excitation wavelengths. Median inhibitory concentration (IC50) was determined by nonlinear regression (GraFit software, Erithacus Software, Horley, UK).
# CYP2C9 = target: T2, CYP2C9 (Homo sapiens, UniProt P11712); experiment: Interaction with Cytochrome P450 isoenzymes: CYP2C9; format: in vitro ADME; conditions: Supersomes expressing human CYP2C9, substrate MFC or DBF, fluorometric; read-out: CYP450 interaction (IC50, uM) 2C9
# T2 construct: purchased Gentest Corporation, Woburn, MA (Supersomes); host or cells: baculovirus-insect cells
# T2 sequence (P11712 whole entry): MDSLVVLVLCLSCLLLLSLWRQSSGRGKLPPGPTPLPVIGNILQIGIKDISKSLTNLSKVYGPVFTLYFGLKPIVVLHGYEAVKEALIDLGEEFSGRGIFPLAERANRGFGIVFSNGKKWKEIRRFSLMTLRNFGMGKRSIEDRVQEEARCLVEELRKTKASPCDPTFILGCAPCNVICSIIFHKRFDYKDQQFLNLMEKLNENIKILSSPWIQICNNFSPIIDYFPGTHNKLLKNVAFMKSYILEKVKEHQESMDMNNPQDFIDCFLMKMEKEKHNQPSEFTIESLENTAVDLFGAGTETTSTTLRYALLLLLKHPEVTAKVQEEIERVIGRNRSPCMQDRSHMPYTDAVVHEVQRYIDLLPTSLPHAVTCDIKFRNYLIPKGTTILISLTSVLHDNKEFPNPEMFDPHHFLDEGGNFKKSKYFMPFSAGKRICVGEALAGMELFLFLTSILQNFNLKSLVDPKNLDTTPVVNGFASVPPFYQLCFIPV
# Experimental: as §1
# CYP2C19 = target: T3, CYP2C19 (Homo sapiens, UniProt P33261); experiment: Interaction with Cytochrome P450 isoenzymes: CYP2C19; format: in vitro ADME; conditions: Supersomes expressing human CYP2C19, substrate CEC, fluorometric; read-out: CYP450 interaction (IC50, uM) 2C19
# T3 construct: purchased Gentest Corporation, Woburn, MA (Supersomes); host or cells: baculovirus-insect cells
# T3 sequence (P33261 whole entry): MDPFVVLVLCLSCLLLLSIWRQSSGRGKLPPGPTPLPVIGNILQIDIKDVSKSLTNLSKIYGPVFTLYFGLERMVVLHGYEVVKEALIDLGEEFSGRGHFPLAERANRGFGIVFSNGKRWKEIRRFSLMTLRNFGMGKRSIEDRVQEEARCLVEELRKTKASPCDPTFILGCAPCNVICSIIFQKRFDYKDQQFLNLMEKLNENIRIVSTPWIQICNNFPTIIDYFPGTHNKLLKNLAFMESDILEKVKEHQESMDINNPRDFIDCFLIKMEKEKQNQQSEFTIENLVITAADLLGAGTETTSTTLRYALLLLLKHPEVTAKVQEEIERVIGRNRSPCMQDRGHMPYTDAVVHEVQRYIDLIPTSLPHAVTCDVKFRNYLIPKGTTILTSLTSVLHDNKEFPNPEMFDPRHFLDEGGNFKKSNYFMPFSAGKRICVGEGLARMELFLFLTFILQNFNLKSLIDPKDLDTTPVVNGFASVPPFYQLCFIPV
# Experimental: as §1
# CYP2D6 = target: T4, CYP2D6 (Homo sapiens, UniProt P10635); experiment: Interaction with Cytochrome P450 isoenzymes: CYP2D6; format: in vitro ADME; conditions: Supersomes expressing human CYP2D6, substrate AMMC, fluorometric; read-out: CYP450 interaction (IC50, uM) 2D6
# T4 construct: purchased Gentest Corporation, Woburn, MA (Supersomes); host or cells: baculovirus-insect cells
# T4 sequence (P10635 whole entry): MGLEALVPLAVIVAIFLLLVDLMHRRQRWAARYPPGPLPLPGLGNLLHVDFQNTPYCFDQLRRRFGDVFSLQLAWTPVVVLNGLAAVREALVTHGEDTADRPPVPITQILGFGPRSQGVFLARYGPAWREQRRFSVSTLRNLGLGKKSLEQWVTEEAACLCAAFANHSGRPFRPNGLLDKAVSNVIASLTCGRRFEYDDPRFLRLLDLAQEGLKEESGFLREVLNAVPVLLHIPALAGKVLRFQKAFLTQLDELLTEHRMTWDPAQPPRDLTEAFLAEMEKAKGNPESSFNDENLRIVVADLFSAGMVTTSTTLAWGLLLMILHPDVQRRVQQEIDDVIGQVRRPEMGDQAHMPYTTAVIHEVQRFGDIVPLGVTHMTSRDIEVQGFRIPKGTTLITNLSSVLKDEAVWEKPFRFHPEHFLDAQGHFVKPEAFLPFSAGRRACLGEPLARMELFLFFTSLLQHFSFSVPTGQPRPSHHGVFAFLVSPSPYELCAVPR
# Experimental: as §1
# CYP3A4 = target: T5, CYP3A4 (Homo sapiens, UniProt P08684); experiment: Interaction with Cytochrome P450 isoenzymes: CYP3A4; format: in vitro ADME; conditions: Supersomes expressing human CYP3A4, substrate BFC, fluorometric; read-out: CYP450 interaction (IC50, uM) 3A4
# T5 construct: purchased Gentest Corporation, Woburn, MA (Supersomes); host or cells: baculovirus-insect cells
# T5 sequence (P08684 whole entry): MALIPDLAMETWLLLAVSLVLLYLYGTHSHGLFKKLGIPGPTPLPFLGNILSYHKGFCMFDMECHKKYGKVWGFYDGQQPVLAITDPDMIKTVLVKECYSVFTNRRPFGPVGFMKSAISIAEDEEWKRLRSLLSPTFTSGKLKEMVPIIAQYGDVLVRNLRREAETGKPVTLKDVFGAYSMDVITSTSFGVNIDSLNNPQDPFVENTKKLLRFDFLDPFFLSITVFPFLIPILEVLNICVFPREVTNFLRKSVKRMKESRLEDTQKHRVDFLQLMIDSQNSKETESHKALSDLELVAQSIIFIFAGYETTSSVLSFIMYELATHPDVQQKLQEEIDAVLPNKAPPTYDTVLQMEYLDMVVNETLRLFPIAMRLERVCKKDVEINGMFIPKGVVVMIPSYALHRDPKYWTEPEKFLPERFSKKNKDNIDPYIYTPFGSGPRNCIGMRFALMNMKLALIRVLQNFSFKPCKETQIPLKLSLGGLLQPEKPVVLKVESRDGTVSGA
# Experimental: as §1
# [1] = radioligand [3H]-AcRYYRWK-NH2, 37°C, 120 min, read-out: ORL-1 Binding affinity (Ki)
# ORL-1 receptor, sequence (P41146 whole entry): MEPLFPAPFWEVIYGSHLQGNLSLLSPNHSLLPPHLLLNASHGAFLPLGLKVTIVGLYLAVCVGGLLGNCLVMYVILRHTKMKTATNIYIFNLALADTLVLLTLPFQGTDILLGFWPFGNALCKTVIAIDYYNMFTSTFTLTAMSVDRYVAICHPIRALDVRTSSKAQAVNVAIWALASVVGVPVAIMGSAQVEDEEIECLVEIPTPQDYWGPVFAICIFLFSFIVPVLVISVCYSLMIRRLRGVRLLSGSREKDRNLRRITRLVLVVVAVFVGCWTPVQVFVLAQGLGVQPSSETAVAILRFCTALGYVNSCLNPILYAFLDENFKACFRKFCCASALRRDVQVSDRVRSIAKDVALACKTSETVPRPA
Structure (SMILES),Ki (ORL-1 receptor; [1]) [µM],IC50 (CYP1A2) [µM],IC50 (CYP2C9) [µM],IC50 (CYP2C19) [µM],IC50 (CYP2D6) [µM],IC50 (CYP3A4) [µM],Ki (ORL-1 receptor) [µM]
"O=C(c1[nH]c2ccccc2c1CN1CCC(c2c(F)cccc2F)CC1)N1CCN(CCOCCO)CC1 [Example 6, {3-[4-(2,6-Difluoro-phenyl)-piperidin-1-ylmethyl]-1H-indol-2-yl}-{4-[2-(2-hydroxy-ethoxy)-ethyl]-piperazin-1-yl}-methanone]",0.034,> 100,> 100,> 100,5.1,98.2,
"Fc1cccc(F)c1C1CCN(Cc2c(-c3ccccc3)[nH]c3ccccc23)CC1 [53 (W02005005411), reference compound]",,11.8,10.7,17.4,< 0.1,13,
"O=C(Cn1c(-c2ccccc2)c(CN2CCC(c3c(F)cccc3F)CC2)c2ccccc21)N1CCOCC1 [Example 13, 2-{3-[4-(2,6-Difluoro-phenyl)-piperidin-1-ylmethyl]-2-phenyl-indol-1-yl}-l-morpholin-4-yl-ethanone]",,> 100,98.6,62.6,94.6,38.1,0.018
"Cc1c(CN2CCC(c3c(F)cccc3Cl)CC2)c2ccccc2n1CC(=O)NC1CCN(C)CC1 [Example 11, 2-{3-[4-(2-Chloro-6-fluoro-phenyl)-piperidin-1-ylmethyl]-2-methyl-indol-1-yl}-N-(1-methyl-piperidin-4-yl)-acetamide]",,> 100,> 100,47.4,20.7,9.6,0.0055
"CN1CCN(C(=O)Cn2c(-c3ccccc3)c(CN3CCC(c4c(F)cccc4F)CC3)c3ccccc32)CC1 [Example 15, 2-{3-[4-(2,6-Difluoro-phenyl)-piperidin-1-ylmethyl]-2-phenyl-indol-1-yl}-1-(4-methyl-piperazin-1-yl)-ethanone]",0.0082,> 100,74.4,38.3,34.7,6.2,

# More lines, main results first:
Ki (ORL-1 receptor; [1]) [µM],IC50 (CYP1A2) [µM],IC50 (CYP2C9) [µM],IC50 (CYP2C19) [µM],IC50 (CYP2D6) [µM],IC50 (CYP3A4) [µM],Structure (SMILES),Ki (ORL-1 receptor) [µM]
0.0028,> 100,> 100,> 100,36.6,18.2,"O=C(Cn1c(-c2ccccc2)c(CN2CCC(c3c(F)cccc3Cl)CC2)c2ccccc21)N1CCOCC1 [Example 12, 2-{3-[4-(2-Chloro-6-fluoro-phenyl)-piperidin-1-ylmethyl]-2-phenyl-indol-1-y}-1-morpholin-4-yl-ethanone]",
,86,31.2,70.1,6.2,25.6,"NC(=O)Cn1c(C(=O)N2CCOCC2)c(CN2CCC(c3c(F)cccc3F)CC2)c2ccccc21 [Example 8, 2-[3-[4-(2,6-Difluoro-phenyl)-piperidin-1-ylmethyl]-2-(morpholine-4-carbonyl)-indol-1-yl]-acetamide]",
0.0042,> 100,25.9,47.5,8.6,54.7,"CC(=O)N(C)C1CCN(C(=O)c2[nH]c3ccccc3c2CN2CCC(c3c(F)cccc3Cl)CC2)C1 (stereo not shown) [Example 3, N-(1-{3-[4-(2-Chloro-6-fluoro-phenyl)-piperidin-1-ylmethyl]-1 H-indole-2-carbonyl}-pyrrolidin-3-yl)-N-methyl-acetamide]",
0.0048,> 100,20.2,25.1,16.8,13.3,"NC(=O)Cn1c(C(=O)N2CCOCC2)c(CN2CCC(c3c(F)cccc3Cl)CC2)c2ccccc21 [Example 7, 2-[3-[4-(2-Chloro-6-fluoro-phenyl)-piperidin-1-ylmethyl]-2-(morpholine-4-carbonyl)-indol-1-yl]-acetamide]",
